According to the OligoGym collection:
HELM strings list units from the 5' end as sugar, base in round brackets, then linkage (d deoxyribose, r ribose, m 2'-O-methyl, p phosphodiester). Strings are as the collection lists them, not checked against the first reports. ss, as = sense and antisense strand; [lna] = locked nucleic acid (LNA); [una] = unlocked nucleic acid; [s4r] = 4'-thioribose; [fl2r] = 2'-fluoro

Conditions: siRNA
Further: test system not given here.

Substance	target mRNA knockdown
RNA1{r(U)p.m(U)p.r(A)p.r(A)p.r(G)p.r(G)p.r(A)p.r(G)p.r(A)p.r(A)p.r(G)p.r(C)p.m(U)p.r(G)p.r(A)p.r(C)p.r(G)p.r(G)p.r(C)p.r(T)p.r(T)}|RNA2{r(G)p.r(C)p.r(C)p.r(G)p.r(U)p.m(C)p.r(A)p.r(G)p.r(C)p.r(U)p.r(U)p.r(C)p.r(U)p.r(C)p.r(C)p.r(U)p.m(U)p.r(A)p.r(A)p.r(T)p.r(T)}$$$RNA1{StrandType:ss}|RNA2{StrandType:as}$	67%
RNA1{m(C)p.r(U)p.m(C)p.r(C)p.m(U)p.r(U)p.m(C)p.r(A)p.m(U)p.r(U)p.m(C)p.r(C)p.m(A)p.r(G)p.m(C)p.r(C)p.m(U)p.r(A)p.m(U)p.r(T)p.r(T)}|RNA2{r(A)p.r(U)p.r(A)p.r(G)p.r(G)p.r(C)p.r(U)p.r(G)p.r(G)p.r(A)p.r(A)p.r(U)p.r(G)p.r(A)p.r(A)p.r(G)p.r(G)p.r(A)p.r(G)p.r(T)p.r(T)}$$$RNA1{StrandType:ss}|RNA2{StrandType:as}$	51%
RNA1{[lna](T)p.r(C)p.r(C)p.r(A)p.r(G)p.r(A)p.r(A)p.r(C)p.r(A)p.r(A)p.r(A)p.r(G)p.r(G)p.r(A)p.r(A)p.r(A)p.r(C)p.r(G)p.r(G)p.[lna](T)p.[lna](T)}|RNA2{r(C)p.r(C)p.r(G)p.r(U)p.r(U)p.r(U)p.r(C)p.r(C)p.r(U)p.r(U)p.r(U)p.r(G)p.r(U)p.r(U)p.r(C)p.r(U)p.r(G)p.r(G)p.r(A)p.r(T)p.r(T)}$$$RNA1{StrandType:ss}|RNA2{StrandType:as}$	50%
RNA1{r(A)p.r(A)p.r(A)p.r(C)p.r(A)p.r(U)p.r(G)p.r(C)p.r(A)p.r(G)p.r(A)p.r(A)p.r(A)p.r(A)p.r(U)p.r(G)p.r(C)p.r(U)p.r(G)p.r(T)p.r(T)}|RNA2{r(C)p.r(A)p.r(G)p.r(C)p.r(A)p.r(U)p.r(U)p.r(U)p.r(U)p.r(C)p.r(U)p.r(G)p.r(C)p.r(A)p.r(U)p.r(G)p.r(U)p.[s4r](U)p.[s4r](U)p.r(T)p.r(T)}$$$RNA1{StrandType:ss}|RNA2{StrandType:as}$	57.2%
RNA1{r(C)p.r(C)p.r(G)p.r(A)p.r(A)p.r(G)p.r(A)p.r(C)p.r(G)p.r(A)p.r(A)p.r(G)p.r(C)p.[fl2r](U)p.r(A)p.[fl2r](U)p.r(G)p.r(A)p.r(A)p.r(T)p.r(T)}|RNA2{r(U)p.r(U)p.[fl2r](C)p.r(A)p.[fl2r](U)p.r(A)p.r(G)p.r(C)p.r(U)p.r(U)p.r(C)p.r(G)p.r(U)p.r(C)p.r(U)p.r(U)p.r(C)p.r(G)p.r(G)p.r(T)p.r(T)}$$$RNA1{StrandType:ss}|RNA2{StrandType:as}$	46%
RNA1{r(G)p.r(G)p.r(G)p.r(A)p.r(G)p.r(G)p.r(U)p.r(C)p.r(U)p.m(U)p.r(A)p.r(G)p.r(A)p.r(A)p.r(A)p.r(A)p.r(C)p.r(A)p.r(C)p.r(T)p.r(T)}|RNA2{r(G)p.r(U)p.r(G)p.r(U)p.r(U)p.r(U)p.r(U)p.r(C)p.m(U)p.r(A)p.r(A)p.r(G)p.r(A)p.r(C)p.r(C)p.r(U)p.r(C)p.r(C)p.r(C)p.r(T)p.r(T)}$$$RNA1{StrandType:ss}|RNA2{StrandType:as}$	84%
RNA1{r(G)p.r(C)p.m(U)p.r(G)p.r(A)p.r(G)p.r(G)p.r(A)p.r(A)p.r(A)p.r(G)p.r(G)p.m(G)p.r(A)p.m(C)p.r(A)p.r(U)p.r(C)p.r(U)p.r(T)p.r(T)}|RNA2{r(A)p.r(G)p.r(A)p.m(U)p.r(G)p.r(U)p.r(C)p.r(C)p.r(C)p.r(U)p.r(U)p.r(U)p.r(C)p.r(C)p.r(U)p.m(C)p.r(A)p.r(G)p.r(C)p.r(T)p.r(T)}$$$RNA1{StrandType:ss}|RNA2{StrandType:as}$	76%
RNA1{r(G)p.r(U)p.r(A)p.r(U)p.r(G)p.r(A)p.r(C)p.r(C)p.r(G)p.r(A)p.r(C)p.r(U)p.r(A)p.r(C)p.r(G)p.r(C)p.r(G)p.r(U)p.r(A)p.r(T)p.r(T)}|RNA2{r(U)p.r(U)p.r(C)p.r(A)p.r(G)p.r(U)p.r(G)p.r(U)p.r(G)p.r(A)p.r(U)p.[una](G)p.r(A)p.r(C)p.r(A)p.r(C)p.r(U)p.r(U)p.r(G)p.r(T)p.r(T)}$$$RNA1{StrandType:ss}|RNA2{StrandType:as}$	59%
RNA1{r(G)p.r(C)p.r(A)p.r(G)p.r(C)p.r(A)p.r(C)p.r(G)p.r(A)p.r(C)p.r(U)p.r(U)p.r(C)p.r(U)p.r(U)p.r(C)p.r(A)p.r(A)p.r(G)p.r(T)p.r(T)}|RNA2{m(C)p.m(U)p.m(U)p.m(G)p.m(A)p.m(A)p.m(G)p.m(A)p.m(A)p.m(G)p.m(U)p.m(C)p.m(G)p.m(U)p.m(G)p.m(C)p.m(U)p.m(G)p.m(C)p.r(T)p.r(T)}$$$RNA1{StrandType:ss}|RNA2{StrandType:as}$	16%
RNA1{[fl2r](U)p.r(A)p.r(A)p.r(C)p.r(C)p.r(C)p.r(C)p.r(A)p.r(A)p.r(G)p.r(A)p.r(A)p.r(C)p.r(G)p.r(G)p.r(G)p.r(C)p.r(U)p.r(U)p.r(T)p.r(T)}|RNA2{r(A)p.r(A)p.r(G)p.r(C)p.r(C)p.r(C)p.r(G)p.r(U)p.r(U)p.r(C)p.r(U)p.r(U)p.r(G)p.r(G)p.r(G)p.r(G)p.r(U)p.[fl2r](U)p.r(A)p.r(T)p.r(T)}$$$RNA1{StrandType:ss}|RNA2{StrandType:as}$	73%
RNA1{r(A)p.r(U)p.r(C)p.m(U)p.r(A)p.r(C)p.r(C)p.m(C)p.r(A)p.r(G)p.r(C)p.r(U)p.r(C)p.m(U)p.r(C)p.r(C)p.r(C)p.r(U)p.r(U)p.r(T)p.r(T)}|RNA2{r(A)p.r(A)p.r(G)p.r(G)p.r(G)p.r(A)p.r(G)p.r(A)p.r(G)p.r(C)p.m(U)p.r(G)p.r(G)p.r(G)p.m(U)p.r(A)p.r(G)p.r(A)p.r(U)p.r(T)p.r(T)}$$$RNA1{StrandType:ss}|RNA2{StrandType:as}$	75%
RNA1{r(C)p.r(U)p.r(U)p.r(A)p.r(C)p.r(G)p.r(C)p.r(U)p.r(G)p.r(A)p.r(G)p.r(U)p.r(A)p.r(C)p.r(U)p.r(U)p.r(C)p.r(G)p.r(A)p.r(T)p.r(T)}|RNA2{r(T)p.r(C)p.[lna](G)p.r(A)p.r(A)p.r(G)p.r(U)p.r(A)p.r(C)p.r(U)p.r(C)p.r(A)p.r(G)p.r(C)p.r(G)p.r(U)p.r(A)p.r(A)p.r(G)p.[lna](T)p.[lna](T)}$$$RNA1{StrandType:ss}|RNA2{StrandType:as}$	90%
RNA1{r(C)p.[fl2r](U)p.r(A)p.r(G)p.r(A)p.r(G)p.r(G)p.[fl2r](A)p.r(U)p.r(C)p.r(U)p.[fl2r](U)p.r(G)p.r(A)p.r(A)p.r(G)p.r(A)p.r(C)p.r(C)p.r(T)p.r(T)}|RNA2{r(G)p.r(G)p.r(U)p.r(C)p.r(U)p.r(U)p.r(C)p.r(A)p.r(A)p.r(G)p.r(A)p.r(U)p.r(C)p.r(C)p.r(U)p.r(C)p.[fl2r](U)p.r(A)p.r(G)p.r(T)p.r(T)}$$$RNA1{StrandType:ss}|RNA2{StrandType:as}$	78%
RNA1{r(G)p.r(G)p.r(A)p.r(A)p.m(G)p.r(U)p.r(A)p.r(A)p.r(G)p.r(G)p.r(A)p.r(C)p.r(C)p.r(A)p.r(G)p.r(A)p.r(G)p.r(A)p.r(C)p.r(T)p.r(T)}|RNA2{r(G)p.r(U)p.r(C)p.r(U)p.r(C)p.r(U)p.r(G)p.r(G)p.r(U)p.r(C)p.r(C)p.r(U)p.m(U)p.r(A)p.r(C)p.r(U)p.r(U)p.r(C)p.r(C)p.r(T)p.r(T)}$$$RNA1{StrandType:ss}|RNA2{StrandType:as}$	44%
RNA1{r(G)p.r(C)p.r(G)p.r(C)p.r(U)p.r(G)p.r(C)p.r(U)p.r(G)p.r(G)p.r(U)p.r(G)p.r(C)p.r(C)p.r(A)p.r(A)p.r(C)p.r(C)p.r(C)p.d(T)p.d(T)}|RNA2{r(G)p.r(G)p.r(G)p.r(U)p.r(U)p.r(G)p.r(G)p.r(C)p.r(A)p.r(C)p.r(C)p.r(A)p.r(G)p.r(C)p.r(A)p.r(G)p.r(C)p.r(G)p.r(C)p.d(T)p.d(T)}$$$RNA1{StrandType:ss}|RNA2{StrandType:as}$	74%
RNA1{r(C)p.m(U)p.m(A)p.r(C)p.r(C)p.r(U)p.r(U)p.r(C)p.r(U)p.r(C)p.r(C)p.r(U)p.r(C)p.r(U)p.r(U)p.r(C)p.r(U)p.r(C)p.r(C)p.r(T)p.r(T)}|RNA2{r(G)p.r(G)p.r(A)p.r(G)p.r(A)p.r(A)p.r(G)p.r(A)p.r(G)p.r(G)p.r(A)p.r(G)p.r(A)p.r(A)p.r(G)p.r(G)p.m(U)p.m(A)p.r(G)p.r(T)p.r(T)}$$$RNA1{StrandType:ss}|RNA2{StrandType:as}$	68%
RNA1{r(A)p.r(G)p.r(C)p.m(C)p.r(A)p.r(C)p.r(A)p.r(U)p.r(U)p.r(U)p.r(C)p.r(U)p.m(A)p.r(G)p.r(G)p.r(A)p.r(G)p.r(A)p.r(U)p.r(T)p.r(T)}|RNA2{r(A)p.r(U)p.r(C)p.r(U)p.r(C)p.r(C)p.r(U)p.r(A)p.r(G)p.r(A)p.r(A)p.r(A)p.m(U)p.r(G)p.r(U)p.r(G)p.r(G)p.r(C)p.r(U)p.r(T)p.r(T)}$$$RNA1{StrandType:ss}|RNA2{StrandType:as}$	29%
RNA1{r(A)p.r(A)p.m(U)p.r(A)p.r(A)p.r(G)p.m(C)p.r(A)p.r(G)p.r(C)p.r(U)p.r(C)p.r(G)p.r(C)p.r(G)p.r(C)p.r(U)p.r(C)p.r(C)p.r(T)p.r(T)}|RNA2{r(G)p.r(G)p.r(A)p.r(G)p.r(C)p.r(G)p.r(C)p.r(G)p.r(A)p.r(G)p.r(C)p.m(U)p.r(G)p.r(C)p.m(U)p.r(U)p.r(A)p.r(U)p.r(U)p.r(T)p.r(T)}$$$RNA1{StrandType:ss}|RNA2{StrandType:as}$	68%
RNA1{[fl2r](G)p.m(A)p.[fl2r](C)p.m(G)p.[fl2r](U)p.m(A)p.[fl2r](A)p.m(A)p.[fl2r](C)p.m(G)p.[fl2r](G)p.m(C)p.[fl2r](C)p.m(A)p.[fl2r](C)p.m(A)p.[fl2r](A)p.m(G)p.[fl2r](U)p.m(U)p.[fl2r](C)}|RNA2{r(A)p.r(C)p.r(U)p.r(U)p.r(G)p.r(U)p.r(G)p.r(G)p.r(C)p.r(C)p.r(G)p.r(U)p.r(U)p.r(U)p.r(A)p.r(C)p.r(G)p.r(U)p.[lna](C)p.[lna](G)p.r(C)}$$$RNA1{StrandType:ss}|RNA2{StrandType:as}$	84.4%
RNA1{d(G)p.d(C)p.d(A)p.d(G)p.d(C)p.d(A)p.d(C)p.d(G)p.d(A)p.d(C)p.d(U)p.d(U)p.d(C)p.d(U)p.d(U)p.d(C)p.d(A)p.d(A)p.d(G)p.r(T)p.r(T)}|RNA2{d(C)p.d(U)p.d(U)p.d(G)p.d(A)p.d(A)p.d(G)p.d(A)p.d(A)p.d(G)p.d(U)p.d(C)p.d(G)p.d(U)p.d(G)p.d(C)p.d(U)p.d(G)p.d(C)p.r(T)p.r(T)}$$$RNA1{StrandType:ss}|RNA2{StrandType:as}$	0%
